Read-outs that look alike come from different tables or passages of the source.
Experiments:
[1] = molecular target: T1, BSA (Bos taurus, UniProt P02769); assay: BSA fluorescence quenching titration; type: binding, bovine; settings: for KBSA, Stern–Volmer quenching constant: BSA 3 × 10^−6 M, PBS pH 7.4; for Kq, quenching rate constant: τ0 = 1 × 10^−8
T1 construct: purchased Himedia Chemicals
Procedure: BSA stock solution (5 mM) was prepared in 5 mM phosphate buffer (pH 7.4) and then kept at 2–6 °C. The binding mechanism of the Ti(IV) complexes with BSA was established using fluorescence titration at 200–500 nm. Metal complexes with BSA were quenched by tracking changes in the fluorescence intensity at a certain excitation wavelength of 285 nm and emission value at 345 nm, respectively.[52] Identical excitation and emission scan rates and slit widths were employed in all investigations. In order to titrate against different metal complex concentrations ranging from 0 to 80 μM, a constant protein concentration of BSA was used. Similarly, the synchronous fluorescence spectra were also acquired by titrating different metal complex concentrations ranging from 0 to 80 μM while maintaining a constant BSA at the specified excitation wavelengths, λ = 15 nm and 60 nm.[53,54]
Ti(IV) complexes of (1 × 10^−5 M) concentration were gradually added, ranging from 0 to 72 μM to bind with BSA (3 × 10^−6 M) of fixed concentration in PBS buffer of pH 7.4. […] This phenomenon might be caused by modifications to the secondary or tertiary structures of BSA, which could have an impact on the tryptophan residues of the BSA microenvironment. Typically, the Stern–Volmer eqn (8) can be used to characterize fluorescence quenching.8 I0/I = 1+KBSA[Q] = 1 + kqτ0[Q]where τ0 is the lifetime of the tryptophan in BSA, which is determined to be 1 × 10^−8, kq is the quenching constant, I0 is the fluorescence intensity of BSA in the absence of complex and I denotes the fluorescence intensities of BSA in the presence of a complex of concentration [Q]. The quenching rate constant, dynamic quenching constant, average lifetime without quencher, and quencher concentration of the biomolecule are represented by the values of kq, KBSA, τ0 and [Q], respectively.
The binding constant (Kb) and the number of binding sites (n) for the static quenching interaction can be determined using the Scatchard eqn (9),9 Log(I0 − I/I) = log K + n log[Q]where I0 and I are the fluorescence intensities of BSA with and without quenchers (complexes). Fig. 7(c), Table 3 and ESI Fig. S70 ^† display the double logarithmic plot of log[I0 − I/I] vs. log[complex].

[2] = molecular target: T1, BSA; assay: BSA site marker (ibuprofen, warfarin) fluorescence quenching; type: binding, bovine; settings: 298 K; for Kb binding constant, BSA+Ibuprofen: site probe ibuprofen; for Kb binding constant, BSA + Warfarin: site probe warfarin
Procedure: Fluorescence emission spectroscopy was used for site marker investigation, using an excitation wavelength of 280 nm. As they bind to the two most prevalent drug-binding sites, Sudlow sites I and II, two distinct site marker medications, warfarin (WAR) and ibuprofen (IBU), were utilized as particular site markers (probes) in this experiment. Separately, 10 mg of the site marker probes (WAR) and (IBU) were dissolved in PBS buffer. Subsequently, a known quantity of BSA was added to each probe stock solution to achieve a 5 mM concentration, and the mixture was maintained at 2 to 6 °C. The BSA + site marker binary solution was then titrated with different metal complex concentrations ranging from 0 to 80 μM, while maintaining constant binary solutions of BSA + IBU and BSA + WAR.[55,56]
In our experiment, fluorescence titration techniques were employed to determine the binding position of the BSA molecule. For the fluorescence titration, the excitation wavelength was […], and the emission was monitored between 300 and 500 nm where a fixed concentration of BSA (3 × 10^−6 M) and site markers (BSA + WAR) (BSA + IBU) were taken separately and titrated with the incremental addition of Ti-1-IS to Ti-6-IBr (0–100 μM). By comparing the Ksv values shown with and without site markers, the binding site of Ti(IV) complexes inside BSA was identified (ESI Table S3 ^†).
The Scatchard eqn (9) was used to examine the emission quenching data.

[3] = DPPH radical scavenging assay; type: biochemical; settings: 40 minutes, absorbance at 517 nm
Excerpt: In the current study, 1,1-diphenyl 2-picrylhydrazyl (DPPH) radical scavenging screening determined the antioxidant properties of the synthesized Ti(IV) complexes. The spectrophotometric principle that led to the quenching of stable-colored radicals (DPPH) is the foundation of DPPH assays.[62] By detecting the drop in absorbance at 517 nm, which corresponds to the DPPH free radical, the scavenging activity of the produced complexes can be determined. The result of the reaction between the scavenger and colored free radical is 1,1-diphenyl-2-picrylhydrazine (DPPH-H), which lacks color. The newly synthesized Ti(IV) complexes were dissolved at a ratio of 1 mg mL^−1 in DMSO to create the stock solution. Similarly, methanol was used to prepare a stock solution of a 0.05 Mm DPPH solution. The Ti(IV) complexes were dissolved in DPPH stock solution to make (9.5 μM, 18.75 μM, 37.5 μM, 75 μM, 100 μM, and 300 μM) concentrations of the complexes and kept in a state of rest for 40 minutes under closed conditions. The absorbance of the Ti(IV) complexes was measured at 517 nm after 40 minutes for each solution loaded in 96-well plates using a Bio-Rad xMARK™ Microplate Spectrophotometer. For comparison, the absorbance of a control solution containing DPPH and methanol as blank, devoid of test samples, was also measured at the same level. Three sets of experiments were conducted for each concentration, using ascorbic acid as the standard reference. Using eqn (1), the proportion of DPPH free radical scavenging activity was calculated.[63]1 [drawing 1] where Ac and As are the absorbance of the control and the mixture. The necessary concentration of the Ti(IV) complexes to scavenge DPPH radicals was determined by employing linear regression to plot a curve between concentration and % inhibition.
In order to ascertain the antioxidant activity of the Ti(IV) complexes, a UV-vis spectrophotometric examination was performed using the 1,1-diphenyl-2-picrylhydrazyl (DPPH) method. Since DPPH is thought to be a dependable, stable, free radical, it reacts with methanol to form a […]. The ability of the complexes containing DPPH radicals to scavenge radicals was evaluated in the manner described. Several concentrations of the Ti(IV) complexes were investigated. Mixtures created by mixing DPPH with each component were subjected to spectrophotometric analysis at 517 nm to determine the absorbance. Antioxidant compounds usually transfer one electron to act as a reducing agent.

[4] = Stability studies by UV-vis in DMSO:H2O and aqueous GSH medium; type: physicochemical; settings: DMSO : H2O (1 : 9, v/v) and aqueous GSH medium, over 72 hours
Procedure: Stability studies were carried out using DMSO : H2O medium (1 : 9, v/v) and aqueous GSH medium to perform stability tests on the freshly synthesized Ti(IV) complexes over 72 hours.

[5] = Scatchard plot, 298 K, no site probe

T1 sequence (P02769 25-607): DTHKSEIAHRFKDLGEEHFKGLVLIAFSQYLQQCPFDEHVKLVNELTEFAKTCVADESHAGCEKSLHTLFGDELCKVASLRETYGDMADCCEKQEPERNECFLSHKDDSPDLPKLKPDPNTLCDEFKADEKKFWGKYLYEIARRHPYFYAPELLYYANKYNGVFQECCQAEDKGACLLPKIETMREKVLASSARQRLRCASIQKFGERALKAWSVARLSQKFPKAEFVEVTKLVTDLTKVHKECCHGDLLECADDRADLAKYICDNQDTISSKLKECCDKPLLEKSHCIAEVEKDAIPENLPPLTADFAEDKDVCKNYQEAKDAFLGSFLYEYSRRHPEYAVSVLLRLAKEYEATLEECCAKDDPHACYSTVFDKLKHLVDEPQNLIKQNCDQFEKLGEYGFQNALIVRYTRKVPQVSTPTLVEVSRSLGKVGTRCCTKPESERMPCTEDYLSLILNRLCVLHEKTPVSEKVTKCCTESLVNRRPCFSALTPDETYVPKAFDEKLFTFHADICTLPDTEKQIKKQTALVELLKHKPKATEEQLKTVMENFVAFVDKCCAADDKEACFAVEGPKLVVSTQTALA

KBSA, Stern–Volmer quenching constant [1] [M⁻¹]	n, number of binding sites (BSA) ([1]; Scatchard plot, 298 K)	Kb binding constant (BSA) [1, 5] [M⁻¹]	Kq, quenching rate constant [1] [M⁻¹ s⁻¹]	Kb binding constant, BSA+Ibuprofen [2] [M⁻¹]	Kb binding constant, BSA + Warfarin [2] [M⁻¹]	IC50 [3] [µM]	Stability [4]	KBSA [1] [M⁻¹]	Kb binding constant (BSA) [1] [M⁻¹]	Compound
175000	1.31	400	1.75e+13	340	480	92.01 ± 0.1	did not change much			[O-]C(=NN=Cc1ccccc1[O-])c1ccncc1.[O-]C(=NN=Cc1ccccc1[O-])c1ccncc1.[Ti+4] [Ti-1-IS]
85000	1.35	140	8.5e+12	540	390	74.84 ± 0.2	small degree of hyperchromism			Brc1ccc2c(c1)C=NN=C(c1ccncc1)[O][Ti]1([O]C(c3ccncc3)=NN=Cc3cc(Br)ccc3[O]1)[O]2 (centres unmarked) [Ti-6-IBr]
197000	1.60	110	1.97e+13	370	400	82.61 ± 0.1	small degree of hyperchromism			[O-]C(=NN=Cc1cc(F)ccc1[O-])c1ccncc1.[O-]C(=NN=Cc1cc(F)ccc1[O-])c1ccncc1.[Ti+4] [Ti-4-IF]
105000	1.26	470	1.05e+13	150	690	128.1 ± 0.3	did not change much			[O-]C(=NN=Cc1c([O-])ccc2ccccc12)c1ccncc1.[O-]C(=NN=Cc1c([O-])ccc2ccccc12)c1ccncc1.[Ti+4] [Ti-2-IN]
277000	1.42	360	2.77e+13	500	580	44.59 ± 0.4	small degree of hyperchromism	277000		COc1cccc(C=NN=C([O-])c2ccncc2)c1[O-].COc1cccc(C=NN=C([O-])c2ccncc2)c1[O-].[Ti+4] [Ti-3-IO]
112000	1.07	650	1.12e+13	350	160	72.26 ± 0.7	remained constant		650	[O-]C(=NN=Cc1cc(Cl)ccc1[O-])c1ccncc1.[O-]C(=NN=Cc1cc(Cl)ccc1[O-])c1ccncc1.[Ti+4] [Ti-5-ICl]

From publication PMC12264794, “Homoleptic complexes of titanium(IV) fused with O^N^O Schiff base derivatives: design, BSA–DNA interaction, molecular docking, DFT and cytotoxicity” (RSC Advances, 2025)
